The record followed here is article PMC4433263, “Identification of Rv3852 as an Agrimophol-Binding Protein in Mycobacterium tuberculosis” (PLoS ONE, 2015).

Structures are written as SMILES.

In the assay the target is T1, Rv3852 (Mycobacterium tuberculosis, UniProt I6YHB0).
T1 construct: gene hns
Briefly: ITC; supported by competitive EMSA with proU2 DNA. Type of assay: binding. For orientation: In ITC the heat of successive injections is recorded.

T1 sequence (I6YHB0 2-134 limits assumed): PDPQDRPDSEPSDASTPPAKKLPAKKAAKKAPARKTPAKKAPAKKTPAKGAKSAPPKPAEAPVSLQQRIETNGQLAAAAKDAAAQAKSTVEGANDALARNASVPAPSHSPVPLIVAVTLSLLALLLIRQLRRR

What is called Kd is the constant that tells how readily two partners part at equilibrium. A lower Kd goes with higher affinity. `CCCC(=O)c1c(O)c(CC2(C)C(=O)C(C(=O)C(C)CC)=C(O)C(C)=C2O)c(O)c(C)c1OC` (centres unmarked) [agrimophol] yielded a Kd of 34 µM. This counts as double-digit micromolar.

Turning to `C#CCOc1c(C)c(O)c(Cc2c(O)c(C)c(O)c(C(=O)C(C)CC)c2O)c(O)c1C(=O)CCC` (centres unmarked) [a1], the Kd is 22 µM.
